{
  "source": "patent US20020187120A1",
  "about": "“Method for treating gout and reducing serum uric acid” (GelTex Pharmaceutical, Inc., priority 2001, published 2002)",
  "origin": "cited, not measured here",
  "settings": "administered orally",
  "data": [
    {"smiles": "COc1cc2c(c(OC)c1OC)-c1ccc(OC)c(=O)cc1[C@@H](NC(C)=O)CC2", "note": "[colchicine]", "values": [
      {"measurement": "people who cannot tolerate the drug because of side effects", "value": 80, "unit": "%"}
    ]}
  ]
}
